{"source": "paper PMC6151550", "about": "“Inhibitory Effect of Selaginellins from Selaginella tamariscina (Beauv.) Spring against Cytochrome P450 and Uridine 5′-Diphosphoglucuronosyltransferase Isoforms on Human Liver Microsomes” (Molecules : A Journal of Synthetic Chemistry and Natural …, 2017)", "origin": "cited, not measured here", "key": {"CYP2C8": {"tested_on": "CYP2C8", "details": "cited from earlier work"}, "UGT1A1": {"tested_on": "UGT1A1", "set-up": "method as in PMID 25216634", "details": "read-out: Ki against UGT1A1-mediated SN-38 glucuronidation; cited from earlier work"}}, "data": [{"smiles": "O=c1c(O)c(-c2ccc(O)c(O)c2)oc2cc(O)cc(O)c12", "note": "[quercetin]", "values": [{"measurement": "IC50", "setting": "CYP2C8", "result": "[…]"}]}, {"smiles": "Cc1c(C)c2c(c(C)c1O)CCC(C)(COc1ccc(CC3SC(=O)NC3=O)cc1)O2", "note": "(stereo not drawn) [troglitazone]", "values": [{"measurement": "IC50", "setting": "CYP2C8", "result": 2.3, "unit": "µM"}]}, {"smiles": "CC(C)=CCc1cc2c(cc1O)oc(=O)c1c3ccc(O)cc3oc21", "note": "[psoralidin]", "values": [{"measurement": "Ki", "setting": "UGT1A1", "result": 5.8, "unit": "µM"}]}]}
